For nine compounds, IC50 results are on record in patent US10000476B2, “Pyridone derivative, pharmaceutical containing the same and methods of use thereof” (KAKEN PHARMACEUTICAL CO., LTD., priority 2011, dated 2018).

Holding throughout (type): biochemical
One assay has as its target human MMP-2 (Homo sapiens (Human), UniProt P08253). In words: MMP-2 inhibition test. Conditions: read-out: MMPs IC50 MMP-2. The procedure: (§1) MMP inhibition tests can be carried out, for example, using a fluorescent synthetic substrate based on the methods described in Bickett et al. (D. Mark Bickett et al., Anal. Biochem., 1993, 212, 58-64) and Nagase et al. (H. Nagase et al., J. Biol. Chem., 1994, 269, 20952-20957). The method for each MMP inhibition test is shown below.
(§2) 90 μL (5 ng) of human MMP-2 (Calbiochem #444213) was mixed with 10 μL of 10 mM APMA, and activated by reacting at 37° C. for 1 hour. 10 μL of the resultant enzyme solution was diluted to 90 μL with an assay buffer A. The mixture was added to 90 μL of a 20 μM fluorescent substrate (MOCAc((7-methoxycoumarin-4-yl)acetyl)-Pro-Leu-Gly-Leu-A2pr(Dnp)-Ala-Arg-NH2, Peptide Institute Inc., #3163-v) (SEQ ID NO: 3) prepared with an assay buffer B, and reacted at 37° C. for 5 hours. Enzyme activity was then determined by measuring with a fluorescence intensity meter (Labsystems, Fluoroskan Ascent) at an excitation wavelength of 320 nm and a measurement wavelength of 405 nm.
(§3) From the enzyme activity in the presence or the absence of the test substance, the inhibition rate was determined, and the 50% inhibitiory concentration (IC50) of the test substance was calculated.

The target in a further assay is TACE (Homo sapiens (Human), UniProt P78536). As to the kind of experiment: TACE inhibition test (in vitro). Conditions: fluorescent synthetic substrate, 37° C., 1.5 hours. In short, it runs like this: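 Recombinant enzyme (cDNA from THP-1 cells, expressed in mammalian or insect cells) with quenched substrate Nma-Leu-Ala-Gln-Ala-Val-Arg-Ser-Ser-Lys(Dnp)-D-Arg-NH2. Incubated 1.5 h at 37 °C; fluorescence read at ex 355/em 460 nm; IC50 from inhibition rate.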
Chain of TACE (P78536 215-824): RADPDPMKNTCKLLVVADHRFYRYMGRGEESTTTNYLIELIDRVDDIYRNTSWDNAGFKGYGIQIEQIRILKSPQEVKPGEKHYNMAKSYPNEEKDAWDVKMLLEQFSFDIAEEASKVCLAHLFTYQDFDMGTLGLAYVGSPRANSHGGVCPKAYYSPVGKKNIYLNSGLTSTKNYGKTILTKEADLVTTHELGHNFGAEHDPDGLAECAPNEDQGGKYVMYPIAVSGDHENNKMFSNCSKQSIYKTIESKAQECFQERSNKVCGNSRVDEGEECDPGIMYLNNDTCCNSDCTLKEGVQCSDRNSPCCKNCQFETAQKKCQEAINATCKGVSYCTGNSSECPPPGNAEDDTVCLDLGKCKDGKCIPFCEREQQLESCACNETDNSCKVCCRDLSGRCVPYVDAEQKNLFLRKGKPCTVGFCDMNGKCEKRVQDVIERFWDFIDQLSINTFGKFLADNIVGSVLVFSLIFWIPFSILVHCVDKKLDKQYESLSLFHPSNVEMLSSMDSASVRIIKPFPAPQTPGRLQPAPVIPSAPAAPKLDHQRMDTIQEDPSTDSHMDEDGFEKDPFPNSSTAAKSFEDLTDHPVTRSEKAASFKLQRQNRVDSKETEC

The target in another assay is human MMP-13 (Homo sapiens (Human), UniProt P45452). In words: MMP-13 inhibition test. Conditions: read-out: MMPs IC50 MMP-13. Here is the method: as §1
90 μL (18 ng) of human MMP-13 (Calbiochem # CC068) or 90 μL (130 ng) of human MMP-13 (Calbiochem #444287) was mixed with 10 μL of 10 mM APMA, and activated by reacting at 37° C. for 1 hour. 10 μL of the resultant enzyme solution was diluted to 90 μL with an assay buffer A. The mixture was added to 90 μL of a 20 μM fluorescent substrate (Dnp-Pro-Cha-Gly-Cys(Me)-His-Ala-Lys(Nma)-NH2) (SEQ ID NO: 2) prepared with an assay buffer B, and reacted at 37° C. for 4 hours. Enzyme activity was then determined by measuring with a fluorescence intensity meter (Labsystems, Fluoroskan Ascent) at an excitation wavelength of 355 nm and a measurement wavelength of 460 nm.
as §3

The target in another assay is human MMP-8 (Homo sapiens (Human), UniProt P22894). In words: MMP-8 inhibition test. To be noted: read-out: MMPs IC50 MMP-8. Here is the method:
as §1
as §2, with “(29” for “(5”, “MMP-8” for “MMP-2”, “#444229)” for “#444213)”, “(MOCAc-Pro-Leu-Gly-Leu-A2pr(Dnp)-Ala-Arg-NH2,” for “(MOCAc((7-methoxycoumarin-4-yl)acetyl)-Pro-Leu-Gly-Leu-A2pr(Dnp)-Ala-Arg-NH2,”
as §3

The target in the next assay is human MMP-17 (Homo sapiens, UniProt Q9ULZ9). As to the kind of experiment: MMP-17 inhibition test. To be noted: read-out: MMPs IC50 MMP-17. Here is the method: as §1
Chain of human MMP-17 (Q9ULZ9 126-565 limits assumed): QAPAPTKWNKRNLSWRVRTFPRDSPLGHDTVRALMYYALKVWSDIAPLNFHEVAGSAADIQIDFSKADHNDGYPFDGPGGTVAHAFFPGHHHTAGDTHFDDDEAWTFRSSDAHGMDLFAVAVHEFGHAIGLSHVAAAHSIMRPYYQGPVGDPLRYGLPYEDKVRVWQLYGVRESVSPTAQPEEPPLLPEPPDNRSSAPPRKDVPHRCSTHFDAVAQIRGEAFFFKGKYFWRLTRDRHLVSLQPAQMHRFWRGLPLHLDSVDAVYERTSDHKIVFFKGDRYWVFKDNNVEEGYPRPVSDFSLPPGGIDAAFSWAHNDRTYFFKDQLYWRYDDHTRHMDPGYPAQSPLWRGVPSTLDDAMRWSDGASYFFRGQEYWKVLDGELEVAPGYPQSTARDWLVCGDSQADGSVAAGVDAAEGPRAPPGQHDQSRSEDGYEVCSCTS
90 μL (5.8 ng) of human MMP-17 (Calbiochem #475940) prepared with an assay buffer A was added to 90 μL of a 20 μM fluorescent substrate (MOCAc-Pro-Leu-Gly-Leu-A2pr(Dnp)-Ala-Arg-NH2, Peptide Institute Inc., #3163-v) (SEQ ID NO: 3) prepared with an assay buffer B, and reacted at room temperature for 5 hours. Enzyme activity was then determined by measuring with a fluorescence intensity meter (Labsystems, Fluoroskan Ascent) at an excitation wavelength of 320 nm and a measurement wavelength of 405 nm.
as §3

In the next assay the target is human MMP-1 (Homo sapiens (Human), UniProt P03956). As to the kind of experiment: MMP-1 inhibition test. To be noted: read-out: MMPs IC50 MMP-1. Here is the method:
as §1
180 μL (100 ng) of human MMP-1 (Calbiochem #444208) was mixed with 20 μL of 10 mM p-amino phenyl mercuric acetate (APMA), and activated by reacting at 37° C. for 1 hour. 20 μL of the resultant enzyme solution was diluted to 90 μL with an assay buffer A. The mixture was added to 90 μL of a 20 μM fluorescent substrate (Dnp-Pro-Cha(β-cyclohexylalanyl)-Gly-Cys(Me)-His-Ala-Lys(Nma)-NH2) (SEQ ID NO: 2) prepared with an assay buffer B, and reacted at 37° C. for 5 hours. Enzyme activity was then determined by measuring with a fluorescence intensity meter (Labsystems, Fluoroskan Ascent) at an excitation wavelength of 355 nm and a measurement wavelength of 460 nm.
as §3

Usually IC50 stands for the midpoint of a concentration-inhibition curve.

Chain of human MMP-2 (P08253 110-660): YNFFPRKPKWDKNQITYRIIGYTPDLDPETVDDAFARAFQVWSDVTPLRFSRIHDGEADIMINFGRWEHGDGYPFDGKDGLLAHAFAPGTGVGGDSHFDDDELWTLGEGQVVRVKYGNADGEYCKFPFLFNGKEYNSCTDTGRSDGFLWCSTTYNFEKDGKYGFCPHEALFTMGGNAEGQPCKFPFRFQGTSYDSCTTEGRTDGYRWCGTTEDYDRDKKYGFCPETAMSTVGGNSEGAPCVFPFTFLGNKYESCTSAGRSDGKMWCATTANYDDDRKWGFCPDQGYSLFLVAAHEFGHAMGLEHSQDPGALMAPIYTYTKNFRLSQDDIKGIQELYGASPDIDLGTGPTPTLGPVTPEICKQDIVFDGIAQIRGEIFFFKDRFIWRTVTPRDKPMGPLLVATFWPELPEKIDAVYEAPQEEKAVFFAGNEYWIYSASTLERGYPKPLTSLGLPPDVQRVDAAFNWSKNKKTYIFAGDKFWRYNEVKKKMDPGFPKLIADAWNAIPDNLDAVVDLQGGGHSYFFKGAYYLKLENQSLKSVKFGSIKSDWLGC
Chain of human MMP-1 (P03956 100-469): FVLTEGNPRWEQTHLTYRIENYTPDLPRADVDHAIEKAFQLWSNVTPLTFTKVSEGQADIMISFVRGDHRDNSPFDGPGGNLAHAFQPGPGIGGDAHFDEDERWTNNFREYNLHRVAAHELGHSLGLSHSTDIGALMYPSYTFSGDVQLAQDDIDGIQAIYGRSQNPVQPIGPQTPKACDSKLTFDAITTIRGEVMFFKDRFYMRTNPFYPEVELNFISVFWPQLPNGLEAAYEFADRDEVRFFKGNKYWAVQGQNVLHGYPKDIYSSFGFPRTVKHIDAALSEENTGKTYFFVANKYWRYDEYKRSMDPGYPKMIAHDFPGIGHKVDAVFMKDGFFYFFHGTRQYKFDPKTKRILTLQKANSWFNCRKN
Chain of human MMP-8 (P22894 101-467): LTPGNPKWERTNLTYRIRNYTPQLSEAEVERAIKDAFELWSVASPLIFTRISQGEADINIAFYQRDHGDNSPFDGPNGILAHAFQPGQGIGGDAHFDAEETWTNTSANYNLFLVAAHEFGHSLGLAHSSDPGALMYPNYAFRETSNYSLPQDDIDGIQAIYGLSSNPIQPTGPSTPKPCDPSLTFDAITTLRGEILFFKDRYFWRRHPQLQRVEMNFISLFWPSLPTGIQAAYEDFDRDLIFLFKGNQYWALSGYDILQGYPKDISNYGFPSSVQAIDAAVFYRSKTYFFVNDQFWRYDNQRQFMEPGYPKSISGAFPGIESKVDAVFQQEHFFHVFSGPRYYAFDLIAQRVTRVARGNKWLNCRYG

As to `Cc1cccn(CC2(c3ccc(Cc4ccc(F)cc4)cc3)NC(=O)NC2=O)c1=O` (stereo not drawn) [Compound I-41, 5-[4-(4-fluorobenzyl)phenyl]-5-[(3-methyl-2-oxopyridin-1(2H)-yl)methyl] imidazolidine-2,4-dione], the IC50 at human MMP-2 is 69 µM; against TACE, under 0.1 µM; on human MMP-13 it was over 100 µM; at human MMP-8, over 10 µM; on human MMP-17 it was 16 µM; at human MMP-1 it was 93 µM.

Take `Cc1cccn(CC2(c3ccc(Oc4ccccc4F)cc3)NC(=O)NC2=O)c1=O` (stereo not drawn) [Compound I-86]: the IC50 at human MMP-2 is 51 µM; against TACE, under 0.1 µM; on human MMP-13 it was over 100 µM; on human MMP-8, 18 µM; on human MMP-17 it was 27 µM; on human MMP-1, over 100 µM.

As to `Cc1cccn(CC2(c3ccccc3)NC(=O)NC2=O)c1=O` (stereo not drawn) [Compound I-1, 5-[(3-methyl-2-oxopyridin-1(2H)-yl)methyl]-5-phenyl-imidazolidine-2,4-dione], the IC50 on human MMP-2 was over 100 µM; at TACE it was under 0.1 µM; on human MMP-13, 45 µM; at human MMP-8, 21 µM; on human MMP-17 it was over 100 µM; at human MMP-1, over 100 µM.

Take `Cc1cccn(CC2(c3ccc(Cc4ccccc4)cc3)NC(=O)NC2=O)c1=O` (stereo not drawn) [Compound I-40, 5-(4-benzylphenyl)-5-[(3-methyl-2-oxopyridin-1(2H)-yl)methyl]imidazolidine-2,4-dione]: the IC50 on human MMP-2 is over 100 µM; at TACE it was under 0.1 µM; on human MMP-13, over 100 µM; at human MMP-8, 16 µM; at human MMP-17, 30 µM; on human MMP-1 it was over 100 µM.

For `Cc1cccn(CC2(c3ccc(Oc4ccccc4)cc3)NC(=O)NC2=O)c1=O` (stereo not drawn) [Compound I-9, 5-[(3-methyl-2-oxopyridin-1(2H)-yl)methyl]-5-(4-phenoxyphenyl)imidazolidine-2,4-dione], the IC50 is 29 µM at human MMP-2; under 0.1 µM on TACE; over 100 µM on human MMP-13; 14 µM on human MMP-8; 21 µM at human MMP-17; over 100 µM at human MMP-1.

With `COc1ccc(Cl)cc1C1(Cn2cccc(C)c2=O)NC(=O)NC1=O` (stereo not drawn) [Compound I-27, 5-(5-chloro-2-methoxyphenyl)-5-[(3-methyl-2-oxopyridin-1(2H)-yl)methyl]imidazolidine-2,4-dione], the IC50 on human MMP-2 was 62 µM; against TACE it was under 0.1 µM; at human MMP-13, over 100 µM; on human MMP-8, 16 µM; at human MMP-17, 57 µM; at human MMP-1, over 100 µM.

`Cc1cccn(CC2(c3cccc(-c4cccnc4)c3)NC(=O)NC2=O)c1=O` (stereo not drawn) [Compound I-62]: the IC50 on human MMP-2 is 31 µM; against TACE, under 0.1 µM; on human MMP-13, over 100 µM; on human MMP-8, 5 µM; at human MMP-17, 45 µM; at human MMP-1, over 100 µM.

Turning to `Cc1cccn(CC2(c3ccc(F)c(F)c3)NC(=O)NC2=O)c1=O` (stereo not drawn) [Compound I-10, 5-(3,4-difluorophenyl)-5-[(3-methyl-2-oxopyridin-1(2H)-yl)methyl] imidazolidine-2,4-dione], the IC50 on human MMP-2 is over 100 µM; against TACE, under 0.1 µM; on human MMP-13, over 100 µM; at human MMP-8 it was 19 µM; at human MMP-17, over 100 µM; at human MMP-1, over 100 µM.

With `Cc1cccn(CC2(c3ccc(OCc4ccccc4)cc3)NC(=O)NC2=O)c1=O` (stereo not drawn) [Compound I-64], the IC50 was over 10 µM at human MMP-2; under 0.1 µM on TACE; over 100 µM at human MMP-13; 6.2 µM on human MMP-8; over 100 µM at human MMP-17; over 100 µM at human MMP-1.
